Laboratory results taken from patent US7253286B2, “Nitrogen-containing aromatic derivatives” (Eisai Co., Ltd, priority 2000, dated 2007).

How the values were obtained:
VEGFR2 = target: T1, VEGFR2 (Homo sapiens, UniProt P35968); experiment: Inhibition against VEGFR2 kinase (receptor tyrosine kinase activity, HTRF method); type: biochemical; conditions: His6-VEGFR2 cytoplasmic domain, biotin-poly(GT) substrate, ATP, 30° C. 10 minutes, read-out: IC50 (concentration required for 50% inhibition of VEGFR2 kinase activity)
T1 construct: coding for the cytoplasmic domain, beginning with lysine 791 and including the termination codon; made in house; host or cells: Sf9 insect cells (baculovirus, pFastBacHis)
T1 sequence (P35968 786-1356 limits assumed): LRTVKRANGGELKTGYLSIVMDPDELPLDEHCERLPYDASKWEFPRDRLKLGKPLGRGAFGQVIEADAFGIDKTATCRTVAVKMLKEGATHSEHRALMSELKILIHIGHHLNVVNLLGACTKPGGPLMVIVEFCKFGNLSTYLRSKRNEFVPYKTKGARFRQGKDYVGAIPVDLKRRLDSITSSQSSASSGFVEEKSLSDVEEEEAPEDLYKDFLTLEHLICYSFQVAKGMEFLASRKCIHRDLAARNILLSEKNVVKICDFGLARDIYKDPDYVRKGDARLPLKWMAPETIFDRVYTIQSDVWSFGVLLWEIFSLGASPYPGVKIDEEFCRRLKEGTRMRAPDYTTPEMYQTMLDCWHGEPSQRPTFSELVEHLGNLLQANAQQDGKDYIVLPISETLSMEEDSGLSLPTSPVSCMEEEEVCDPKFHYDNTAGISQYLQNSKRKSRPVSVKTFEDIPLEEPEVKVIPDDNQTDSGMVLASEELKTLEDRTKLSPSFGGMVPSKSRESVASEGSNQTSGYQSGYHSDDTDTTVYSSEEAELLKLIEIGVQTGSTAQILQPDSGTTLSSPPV
Excerpt: Measurement of Inhibition Against Receptor Tyrosine Kinase Activity
This assay is used to determine inhibition of a test substance on tyrosine kinase activity. DNA coding for the cytoplasmic domain of VEGFR2 is obtained by total cDNA synthesis (Edwards M, International Biotechnology Lab 5(3), 19–25, 1987) or by cloning. Expression in an appropriate expression system can produce a polypeptide with tyrosine kinase activity. […] For VEGFR2 (Genbank Accession No. L04947), the 1.7 kb DNA fragment described by Terman et al. (Oncogene, 6(9), 1677–1683, 1991), coding for the cytoplasmic domain, beginning with lysine 791 and including the termination codon, was isolated from a human placental cDNA library (purchased from Clontech Laboratories, Inc.) and cloned in a Baculovirus expression vector (pFastBacHis, purchased from GIBCO BRL) The recombinant construct was transfected into insect cells (Spondoptea frugiperda9 (Sf9)) to prepare a recombinant Baculovirus. (Instructions for preparation and use of recombinant Baculovirus maybe found in standard texts, such as “Bac-To-Bac Baculovirus Expression System” (GIBCO BRL).) The cytoplasmic fragment starting from lysine 398 (FGFR1, Genbank Accession No. X52833), the cytoplasmic fragment starting from lysine 558 (PDGFRβ, Genbank Accession No. M21616) or the cytoplasmic fragment starting from lysine 974 (HGFR, Genbank Accession No. J02958) may be cloned and expressed by the same method for use in assays for other tyrosine kinases. EGFR was purchased from Sigma Co. (Product No. E-2645).
For expression of the VEGFR2 tyrosine kinase, Sf9 cells were infected with the VEGFR2 recombinant virus and collected after 48 hours. The collected cells were rinsed with ice-cooled phosphate buffered saline (PBS) and then resuspended using 20 ml of ice-cooled Lysis Buffer (50 mM Tris-HCl (pH 8.5), 5 mM 2-mercaptoethanol, 100 mM KCl, 1 mM phenylmethylsulfonyl fluoride, 1% (v/v) NP-40) per 1.5×10^8 cells. The suspension was centrifuged at 12,000 rpm for 30 minutes at 4° C. and the supernatant was obtained.
The supernatant was added to a Ni—NTA agarose column (3 ml, purchased from Qiagen) equilibrated with Buffer A {20 mM Tris-HCl (pH 8.5), 5 mM 2-mercaptoethanol, 500 mM KCl, 20 mM imidazole, 10% (v/v) glycerol}. The column was washed with 30 ml of Buffer A, and then with 6 ml of Buffer B {20 mM Tris-HCl (pH 8.5), 5 mM 2-mercaptoethanol, 1M KCl, 10% (v/v) glycerol}, and finally with 6 ml of Buffer A. After washing, it was eluted with 6 ml of Buffer C {20 mM Tris-HCl (pH8.5), 5mM2-mercaptoethanol, 100 mMKCl, 100 mM imidazole, 10% (v/v) glycerol}. The eluate was placed on a dialysis membrane (purchased from Spectrum Laboratories) and dialyzed with a dialysis buffer {20 mM Tris-HCl (pH 7.5), 10% (v/v) glycerol, 1 mM dithiothreitol, 0.1 mM Na3VO4, 0.1 mM EGTA}. After dialysis, it was supplied for SDS-electrophoresis, and the recombinant protein (His6-VEGFR2, cytoplasmic domain of VEGFR2 fused with 6 histidine residues at the N-terminus) detected at a molecular weight of approximately 100 kDa with Coumassie Brilliant Blue staining was assayed using BSA (bovine serum albumin, purchased from Sigma Co.) as the standard substance, and stored at −80° C. until use. Using the same method for the cytoplasmic domains of FGFR1, PDGFRβ and HGFR yielded respective recombinant proteins fused with 6 histidine residues at the N-termini (His6-FGFR1, His6-PDGFRβ or His6-HGFR).
The tyrosine kinase reaction was conducted as follows. […]

[1] = test system: Human Umbilical Vein Endothelial Cells (HUVECs); experiment: Inhibition against invasive tube formation by vascular endothelial cells in response to stimulation by angiogenic factor mixture; type: cell-based; parameters: key: the number of tubes formed in the absence of the test substance was designated as +++; scored on the 5-level scale of +++, ++, +, +/−, −; scored on the 5-level scale of +++, ++, +, +/−, −; scored on the 5-level scale of +++, ++, +, +/−, −; − was assigned if absolutely no tubes formed; conditions: HUVEC on fibrin gel, EGF/FGF2/VEGF/HGF/TNF-α mixture, 6th day, MTT staining; for number of tubes formed in the fibrin gel (score) at 0.01 μM: test substance 0.01 μM; for number of tubes formed in the fibrin gel (score) at 0.1 μM: test substance 0.1 μM; for number of tubes formed in the fibrin gel (score) at 1.0 μM: test substance 1.0 μM
Method: Inhibition Against Invasive Tube Formation by Vascular Endothelial Cells in Response to Stimulation by Angiogenic Factor Mixture
Human Umbilical Vein Endothelial Cells (HUVECs) were isolated according to a reported method (Shinseikagaku Jikken Koza [New Biochemistry Experiment Lectures], “Saibo Baiyo Gijutsu” [Cell Culturing Techniques], p.197–202), and were cultured in a 5% CO2 incubator (37° C.) using EGM-2 medium (purchased from Clonetics Corp.) until the cells reached confluency. After adding 0.4 ml of bovine fibrinogen (purchased from Sigma Co.) to the inner well of a Transwell culturing plate (purchased from Coster Inc.), it was hardened with 0.7 units/ml of thrombin (purchased from Sigma Co.). The HUVECs were recovered using trypsin-EDTA and then suspended in human endothelial serum free medium basal growth medium (hereinafter abbreviated as SFM, purchased from GIBCO BRL), and 0.4 ml of the cell suspension (1.4×10^5 cells) was seeded onto the hardened fibrin gel and cultured for approximately 4 hours in a 5% CO2 incubator (37° C.). After 4 hours, there was added to the outer chamber of the Transwell 1.5 ml of an SFM solution containing a mixture of angiogenic factors {10 ng/ml EGF (purchased from GIBCO BRL), 30 ng/ml FGF2 (purchased from GIBCO BRL), 75 ng/ml VEGF (purchased from Wako Pure Chemical Industries Co., Ltd.), 50 ng/ml HGF (purchased from R&D Co.) and 7.5 ng/ml TNF-α (purchased from Genzyme Corp.) [The concentrations of the angiogenic factors differed slightly according to the HUVEC lot.]} and a diluted test substance, and culturing was carried out in a 5% CO2 incubator (37° C.). On the 2nd and 4th days after adding the test substance, the medium was exchanged with 1.5 ml of freshly prepared SFM solution containing the angiogenic factor mixture and test substance. Upon aspirating off the culture supernatant in the inner well on the 6th day after the initial addition of the test substance, 0.4 ml of a 3.3 mg/ml MTT solution dissolved in PBS (purchased from Sigma Corp.) was added and culturing was performed for approximately 1 hour in a 5% CO2 incubator (37° C.). The number of tubes formed in the fibrin gel stained with MTT was scored based on microscope observation. Specifically, the number of tubes formed in the absence of the test substance was designated as +++, while − was assigned if absolutely no tubes formed. The number of tubes formed in the presence of the test substance was scored on the 5-level scale of +++, ++, +, +/−, − to evaluate the strength of inhibition of the test substance.

| IC50 (VEGFR2) [nM] | Structure (SMILES) | number of tubes formed in the fibrin gel (score) at 0.01 μM [1] | number of tubes formed in the fibrin gel (score) at 0.1 μM [1] | number of tubes formed in the fibrin gel (score) at 1.0 μM [1] |
| --- | --- | --- | --- | --- |
| 5.5 | COCCOc1cc2nccc(Oc3ccc(NC(=O)Nc4nccs4)c(F)c3)c2cc1C#N [Example 25, N-(4-(6-cyano-7-(2-methoxyethoxy)-4-quinolyl)oxy-2-fluorophenyl)-N′-(1,3-thiazol-2-yl)urea] | ++ | +/− | +/− |
| 4.6 | COc1cc2nccc(Oc3ccc(N(C)C(=O)Nc4ccc(F)cc4)cc3)c2cc1C(N)=O [Example 348] | +/− | − | − |
